Earlier results on one compound are cited in patent US20030157061A1, “Combinations of a cyclooxygenase-2 selective inhibitor and a TNFalpha antagonist and therapeutic uses therefor” (Pharmacia Corporation, priority 2001, published 2003).

The data set concerns fibroblast growth factor-induced corneal angiogenesis. The note with it: rats.

With `Cc1ccc(-c2cc(C(F)(F)F)nn2-c2ccc(S(N)(=O)=O)cc2)cc1` [Celecoxib, 4-[5-(4-methylphenyl)-3-(trifluoromethyl)-1H-pyrazol-1-yl]benzenesulfonamide], the “inhibition of fibroblast growth factor-induced corneal angiogenesis” value was “potent inhibition”.
